Results on four compounds are retold here after PubChem BioAssay AID1259407 (Chemical Carcinogenesis Research Information System (CCRIS), 2018).

Activity calls are given as the source filed them. The rule behind the calls is not given here.

The data set relates to CCRIS mutagenicity, Ames/micronucleus/aberration tests. In words: CCRIS mutagenicity studies.
Where [1] appears, read: Test System: AMES SALMONELLA TYPHIMURIUM, Strain/Indicator: TA98, Metabolic Activation: NONE, Method: PREINCUBATION
The mark [2] stands for this setting: Test System: AMES SALMONELLA TYPHIMURIUM, Strain/Indicator: TA1535, Metabolic Activation: RAT, LIVER, S-9, AROCLOR 1254, Method: PREINCUBATION
The mark [3] stands for this setting: Test System: AMES SALMONELLA TYPHIMURIUM, Strain/Indicator: TA1537, Metabolic Activation: NONE, Method: PREINCUBATION
The mark [4] stands for this setting: Test System: AMES SALMONELLA TYPHIMURIUM, Strain/Indicator: TA1537, Metabolic Activation: RAT, LIVER, S-9, AROCLOR 1254, Method: PREINCUBATION

For `CNN`, the mutagenic call reads like this: (End Point: IN VITRO CHROMOSOMAL ABERRATIONS, Test System: CHL CELLS, Metabolic Activation: RAT, LIVER, S-9, SODIUM PHENOBARBITAL AND 5,6-BENZOFLAVONE) “active; positive (structural changes)”; under setting [1], “inactive; negative”; (Test System: AMES SALMONELLA TYPHIMURIUM, Strain/Indicator: TA98, Metabolic Activation: RAT LIVER S-9, PHENOBARBITAL AND BETA-NAPHTHOFLAVONE, Method: PREINCUBATION) “inactive; negative”; (Test System: AMES SALMONELLA TYPHIMURIUM, Strain/Indicator: TA100, Metabolic Activation: RAT LIVER S-9, PHENOBARBITAL AND BETA-NAPHTHOFLAVONE, Method: PREINCUBATION) “inactive; negative”; (Test System: AMES SALMONELLA TYPHIMURIUM, Strain/Indicator: TA102, Metabolic Activation: NONE, Method: PREINCUBATION) “active; positive”; (Test System: AMES SALMONELLA TYPHIMURIUM, Strain/Indicator: TA1535, Metabolic Activation: RAT LIVER S-9, PHENOBARBITAL AND BETA-NAPHTHOFLAVONE, Method: PREINCUBATION) “active; positive”. The mutagenic call runs as follows: under setting [2], “inactive; negative”; under setting [3], “inactive; negative”; (Test System: AMES SALMONELLA TYPHIMURIUM, Strain/Indicator: TA1537, Metabolic Activation: RAT LIVER S-9, PHENOBARBITAL AND BETA-NAPHTHOFLAVONE, Method: PREINCUBATION) “inactive; negative”; under setting [4], “inactive; negative”; (Test System: E. COLI, Strain/Indicator: WP2 UVRA, Metabolic Activation: NONE, Method: PREINCUBATION) “active; positive”; (Test System: E.COLI, Strain/Indicator: WP2UVRA, Metabolic Activation: RAT LIVER S-9, PHENOBARBITAL AND BETA-NAPHTHOFLAVONE, Method: PREINCUBATION) “active; positive”.

In the case of `O=C1CCCc2cc3c(cc21)cc([N+](=O)[O-])c1ccccc13`, the mutagenic call (Test System: AMES SALMONELLA TYPHIMURIUM, Strain/Indicator: TA98-1,8-DNP6, Metabolic Activation: NONE) is “active; positive”; the mutagenic call (Test System: AMES SALMONELLA TYPHIMURIUM, Strain/Indicator: TA98-1,8-DNP6, Metabolic Activation: S-9) was “inactive; negative”; the mutagenic call (Test System: AMES SALMONELLA TYPHIMURIUM, Strain/Indicator: TA98, Metabolic Activation: NONE) is “active; positive”; the mutagenic call (Test System: AMES SALMONELLA TYPHIMURIUM, Strain/Indicator: TA98, Metabolic Activation: S-9) was “active; positive”; the mutagenic call (Test System: AMES SALMONELLA TYPHIMURIUM, Strain/Indicator: TA98NR, Metabolic Activation: NONE) is “active; positive”; the mutagenic call (Test System: AMES SALMONELLA TYPHIMURIUM, Strain/Indicator: TA98NR, Metabolic Activation: S-9) is “active; positive”. In addition, the mutagenic call (Test System: AMES SALMONELLA TYPHIMURIUM, Strain/Indicator: TA100, Metabolic Activation: NONE) is “active; positive”; the mutagenic call (Test System: AMES SALMONELLA TYPHIMURIUM, Strain/Indicator: TA100, Metabolic Activation: S-9) is “active; positive”; the mutagenic call (Test System: AMES SALMONELLA TYPHIMURIUM, Strain/Indicator: TA100NR, Metabolic Activation: NONE) is “active; positive”; the mutagenic call (Test System: AMES SALMONELLA TYPHIMURIUM, Strain/Indicator: TA100NR, Metabolic Activation: S-9) was “active; positive”.

Consider `O=[N+]([O-])c1ccc2nc3ccc([N+](=O)[O-])cc3nc2c1`, for which the mutagenic call runs as follows: (Test System: AMES SALMONELLA TYPHIMURIUM, Strain/Indicator: TA98(NR), Metabolic Activation: NONE, Method: PREINCUBATION) “active; positive”; under setting [1], “active; positive”.

For the compound `C[Si](C)(C)Cl`, the mutagenic call by setting is: (Test System: AMES SALMONELLA TYPHIMURIUM, Strain/Indicator: TA98, Metabolic Activation: HAMSTER, LIVER, S-9, AROCLOR 1254, Method: PREINCUBATION) “inactive; negative”; under setting [1], “inactive; negative”; (Test System: AMES SALMONELLA TYPHIMURIUM, Strain/Indicator: TA98, Metabolic Activation: NONE, Method: STANDARD PLATE) “inactive; negative”; (Test System: AMES SALMONELLA TYPHIMURIUM, Strain/Indicator: TA98, Metabolic Activation: RAT LIVER S-9, AROCLOR 1254, Method: STANDARD PLATE) “inactive; negative”; (Test System: AMES SALMONELLA TYPHIMURIUM, Strain/Indicator: TA98, Metabolic Activation: RAT, LIVER, S-9, AROCLOR 1254, Method: PREINCUBATION) “inactive; negative”; (Test System: AMES SALMONELLA TYPHIMURIUM, Strain/Indicator: TA100, Metabolic Activation: HAMSTER, LIVER, S-9, AROCLOR 1254, Method: PREINCUBATION) “inactive; negative”. In addition, the mutagenic call is, setting by setting: (Test System: AMES SALMONELLA TYPHIMURIUM, Strain/Indicator: TA100, Metabolic Activation: NONE, Method: PREINCUBATION) “inactive; negative”; (Test System: AMES SALMONELLA TYPHIMURIUM, Strain/Indicator: TA100, Metabolic Activation: NONE, Method: STANDARD PLATE) “inactive; negative”; (Test System: AMES SALMONELLA TYPHIMURIUM, Strain/Indicator: TA100, Metabolic Activation: RAT LIVER S-9, AROCLOR 1254, Method: STANDARD PLATE) “inactive; negative”; (Test System: AMES SALMONELLA TYPHIMURIUM, Strain/Indicator: TA100, Metabolic Activation: RAT, LIVER, S-9, AROCLOR 1254, Method: PREINCUBATION) “inactive; negative”; (Test System: AMES SALMONELLA TYPHIMURIUM, Strain/Indicator: TA1535, Metabolic Activation: HAMSTER, LIVER, S-9, AROCLOR 1254, Method: PREINCUBATION) “inactive; negative”; (Test System: AMES SALMONELLA TYPHIMURIUM, Strain/Indicator: TA1535, Metabolic Activation: NONE, Method: PREINCUBATION) “inactive; negative”. In addition, the mutagenic call was “inactive; negative” (Test System: AMES SALMONELLA TYPHIMURIUM, Strain/Indicator: TA1535, Metabolic Activation: NONE, Method: STANDARD PLATE); “inactive; negative” (Test System: AMES SALMONELLA TYPHIMURIUM, Strain/Indicator: TA1535, Metabolic Activation: RAT LIVER S-9, AROCLOR 1254, Method: STANDARD PLATE); “inactive; negative” under setting [2]; “inactive; negative” (Test System: AMES SALMONELLA TYPHIMURIUM, Strain/Indicator: TA1537, Metabolic Activation: HAMSTER, LIVER, S-9, AROCLOR 1254, Method: PREINCUBATION); “inactive; negative” under setting [3]; “inactive; negative” (Test System: AMES SALMONELLA TYPHIMURIUM, Strain/Indicator: TA1537, Metabolic Activation: NONE, Method: STANDARD PLATE). In addition, the mutagenic call (Test System: AMES SALMONELLA TYPHIMURIUM, Strain/Indicator: TA1537, Metabolic Activation: RAT LIVER S-9, AROCLOR 1254, Method: STANDARD PLATE) is “inactive; negative”; the mutagenic call under setting [4] was “inactive; negative”; the mutagenic call (Test System: AMES SALMONELLA TYPHIMURIUM, Strain/Indicator: TA1538, Metabolic Activation: HAMSTER, LIVER, S-9, AROCLOR 1254, Method: PREINCUBATION) was “inactive; negative”; the mutagenic call (Test System: AMES SALMONELLA TYPHIMURIUM, Strain/Indicator: TA1538, Metabolic Activation: NONE, Method: PREINCUBATION) is “inactive; negative”; the mutagenic call (Test System: AMES SALMONELLA TYPHIMURIUM, Strain/Indicator: TA1538, Metabolic Activation: NONE, Method: STANDARD PLATE) was “inactive; negative”; the mutagenic call (Test System: AMES SALMONELLA TYPHIMURIUM, Strain/Indicator: TA1538, Metabolic Activation: RAT LIVER S-9, AROCLOR 1254, Method: STANDARD PLATE) is “inactive; negative”. Moreover, the mutagenic call was “inactive; negative” (Test System: AMES SALMONELLA TYPHIMURIUM, Strain/Indicator: TA1538, Metabolic Activation: RAT, LIVER, S-9, AROCLOR 1254, Method: PREINCUBATION); “inactive; negative” (Test System: E. COLI, Strain/Indicator: P3078 POLA, Metabolic Activation: NONE, Method: SPOT TEST); “inactive; negative” (Test System: E. COLI, Strain/Indicator: P3078 POLA, Metabolic Activation: RAT LIVER S-9, AROCLOR 1254, Method: SPOT TEST); “inactive; negative” (Test System: E. COLI, Strain/Indicator: W3110, Metabolic Activation: NONE, Method: SPOT TEST); “inactive; negative” (Test System: E. COLI, Strain/Indicator: W3110, Metabolic Activation: RAT LIVER S-9, AROCLOR 1254, Method: SPOT TEST); “inactive; negative. reevaluation of results: negative” (Test System: MOUSE LYMPHOMA, Strain/Indicator: L5178Y (TK+/TK-), Metabolic Activation: RAT, LIVER, S-9, AROCLOR 1254, Method: SUSPENSION/PLATE). For the same compound, under “Test System: MOUSE LYMPHOMA, Strain/Indicator: L5178Y (TK+/TK-), Metabolic Activation: RAT, LIVER, S-9, Method: SUSPENSION/PLATE”, the mutagenic call was “inactive; negative”.
